Data reported in patent publication US8501810B2, “Guanidino acetic acid used as an animal food additive” (AlzChem Trostberg GmbH, priority 2004, dated 2013).

Experiments:
[1] = young rats, cited from earlier work
[2] = Feed for growing hens, additive in air-dried feed, 42 days' growing duration; assay type: in vivo
Text: 1.4 Feed for Growing Hens
In addition, with this feed additive, the feed consumption decreased by about 6% compared with previous feeding methods.
In addition, it was found in this experiment that even an addition of 0.032% by weight of guanidinoacetic acid (0.32 g/kg) to the air-dried feed increased the final weight by 3% for 42 days' growing duration. The feed consumption decreased by 3% compared with previous feeding methods.

Staphyllococcus aureus = conditions: cited from earlier work
[3] = Stability in acidic aqueous solution; assay type: physicochemical
Text: Thus in contrast to creatine, the majority of the compounds administered or fed, guanidinoacetic acid and/or salts of guanidinoacetic acid, are not degraded by instability reactions, for example in the stomach, and excreted before resorption, but are in fact available in the corresponding physiological metabolic reactions.

[4] = 1.112% in base feed, also in combination with methionine; cited from earlier work
[5] = Comparative example: creatine in the feed for growing hens, 41 days growing duration; assay type: in vivo; conditions: 0.2% (2 g/kg) in air-dried feed
Text: 2. Comparative Example (According to EP 920 689)
The effect of the addition of creatine in the feed for growing hens was investigated.
The feed consumption decreased by about 2-3% compared with previous feeding methods.

[6] = 0.032% by weight (0.32 g/kg) in air-dried feed
[7] = 0.092% by weight (0.92 g/kg) in air-dried feed
[8] = control group, 0.04% by weight (0.4 g/kg) in air-dried feed

In the case of `N=C(N)NCC(=O)O` [guanidinoacetic acid], the “creatine content in the skeletal musculature and in the heart muscle” value ([1]; additional administration of methionine) is given as “increased”, the “effect on the muscle creatine level” value ([1]; in combination with folacin and vitamin B12) is given as “no effect” and the effect on growth [1] is given as “inhibitory activity”. For the same compound, the “decrease in feed consumption compared with previous feeding methods” value (“decrease … with previous feeding methods” below) [2, 6] was 3%, the “increase in the final weight” value [2, 6] was 3% and the “decrease … with previous feeding methods” value [2, 7] was “about 6%”. The “increase in the final weight compared with previous feeding methods” value [2, 7] was 7%, the meat quality [2, 7] was “improved quality” and the “nature of the increase in weight (lean-body mass index)” value [2, 7] was “solely by meat gain, but not by fat gain or water accumulation”. The “use against bacterial infections in animal experiments” value (Staphyllococcus aureus) was “successfully used”, the “stability in acidic aqueous solution in contrast to creatine and creatine monohydrate” value [3] was “significantly higher stability” and the feed utilization [4] was “significant decrease”. For the same compound, the weight gain [4] was “significant decrease”.

For `CN(CC(=O)O)C(=N)N.O` [creatine monohydrate, reference compound], the “decrease in feed consumption” value [2, 8] was “no decreased feed consumption” and the “increase in the final weight” value [2, 8] was “no increase in the final weight”.

With `CN(CC(=O)O)C(=N)N` [creatine] the “decrease … with previous feeding methods” value [5] was 2-3%, the “increase in the final weight compared with previous feeding methods” value [5] was 4% and the meat quality [5] was “improved quality”. For the same compound, the “nature of the increase in weight (lean-body mass index)” value [5] was “only by meat gain, but not by fat gain”.
